Assay results reported in PubChem BioAssay AID1845203 (Molecular Pharmacology Branch, DTP, NCI, 2023).

Tested on: G-401 tumor spheroids, viability % test/control
Assay: Anticancer human tumor G-401 cell line growth inhibition;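 further: spheroids exposed to compound for 7 days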;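 on viability, T/C: 100% = DMSO vehicle-treated spheroids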
Settings: spheroids with HUVEC and MSC; for viability, T/C: stronger effect = lower value
Summary of the method: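 Complex tumor spheroids combined malignant cells with endothelial cells and mesenchymal stem cells. DNA-damaging drugs and DNA repair inhibitors were tested alone and in combination, at half-log dilutions down from clinical Cmax (top 10 microM if Cmax unknown), 0.25% DMSO final.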

[1] = curve of first compound, second compound 30 pM
[2] = curve of first compound, second compound 94.9 pM
[3] = curve of first compound, second compound 0.0003 µM
[4] = curve of first compound, second compound 0.000949 µM
[5] = curve of first compound, second compound 0.003 µM
[6] = second compound 30 pM, first compound 0.0316 µM
[7] = second compound 30 pM, first compound 0.1 µM
[8] = second compound 30 pM, first compound 0.316 µM
[9] = second compound 30 pM, first compound 1 µM
[10] = second compound 30 pM, first compound 3.16 µM
[11] = second compound 30 pM, first compound 10 µM
[12] = second compound 94.9 pM, first compound 0.0316 µM
[13] = second compound 94.9 pM, first compound 0.1 µM
[14] = second compound 94.9 pM, first compound 0.316 µM
[15] = second compound 94.9 pM, first compound 1 µM
[16] = second compound 94.9 pM, first compound 3.16 µM
[17] = second compound 94.9 pM, first compound 10 µM
[18] = second compound 0.0003 µM, first compound 0.0316 µM
[19] = second compound 0.0003 µM, first compound 0.1 µM
[20] = second compound 0.0003 µM, first compound 0.316 µM
[21] = second compound 0.0003 µM, first compound 1 µM
[22] = second compound 0.0003 µM, first compound 3.16 µM
[23] = second compound 0.0003 µM, first compound 10 µM
[24] = second compound 0.000949 µM, first compound 0.0316 µM
[25] = second compound 0.000949 µM, first compound 0.1 µM
[26] = second compound 0.000949 µM, first compound 0.316 µM
[27] = second compound 0.000949 µM, first compound 1 µM
[28] = second compound 0.000949 µM, first compound 3.16 µM
[29] = second compound 0.000949 µM, first compound 10 µM
[30] = second compound 0.003 µM, first compound 0.0316 µM
[31] = second compound 0.003 µM, first compound 0.1 µM
[32] = second compound 0.003 µM, first compound 0.316 µM
[33] = second compound 0.003 µM, first compound 1 µM
[34] = second compound 0.003 µM, first compound 3.16 µM
[35] = second compound 0.003 µM, first compound 10 µM

CNCc1ccc(-c2cc(-c3nc(-c4ccc(S(=O)(=O)C(C)C)cc4)cnc3N)on2)cc1 + Cn1nnc2c(C(N)=O)ncn2c1=O
IC50 (curve of first compound, second compound 1 µM): 2010 nM | IC50 (curve of first compound, second compound 3.16 µM): 1780 nM | IC50 (curve of first compound, second compound 10 µM): 1060 nM | IC50 (curve of first compound, second compound 31.6 µM): 917 nM | IC50 (curve of first compound, second compound 100 µM): 323 nM | viability, T/C (second compound 1 µM, first compound 0.00949 µM): 105% | viability, T/C (second compound 1 µM, first compound 0.03 µM): 108% | viability, T/C (second compound 1 µM, first compound 0.0949 µM): 106% | viability, T/C (second compound 1 µM, first compound 0.3 µM): 106% | viability, T/C (second compound 1 µM, first compound 0.949 µM): 72.7% | viability, T/C (second compound 1 µM, first compound 3 µM): 37.8% | viability, T/C (second compound 3.16 µM, first compound 0.00949 µM): 109% | viability, T/C (second compound 3.16 µM, first compound 0.03 µM): 105% | viability, T/C (second compound 3.16 µM, first compound 0.0949 µM): 104% | viability, T/C (second compound 3.16 µM, first compound 0.3 µM): 103% | viability, T/C (second compound 3.16 µM, first compound 0.949 µM): 64.1% | viability, T/C (second compound 3.16 µM, first compound 3 µM): 38.4% | viability, T/C (second compound 10 µM, first compound 0.00949 µM): 103% | viability, T/C (second compound 10 µM, first compound 0.03 µM): 97.6% | viability, T/C (second compound 10 µM, first compound 0.0949 µM): 100% | viability, T/C (second compound 10 µM, first compound 0.3 µM): 99.2% | viability, T/C (second compound 10 µM, first compound 0.949 µM): 52.5% | viability, T/C (second compound 10 µM, first compound 3 µM): 25.4% | viability, T/C (second compound 31.6 µM, first compound 0.00949 µM): 93.9% | viability, T/C (second compound 31.6 µM, first compound 0.03 µM): 94.7% | viability, T/C (second compound 31.6 µM, first compound 0.0949 µM): 96.2% | viability, T/C (second compound 31.6 µM, first compound 0.3 µM): 85.1% | viability, T/C (second compound 31.6 µM, first compound 0.949 µM): 49% | viability, T/C (second compound 31.6 µM, first compound 3 µM): 20.4% | viability, T/C (second compound 100 µM, first compound 0.00949 µM): 96.3% | viability, T/C (second compound 100 µM, first compound 0.03 µM): 98.7% | viability, T/C (second compound 100 µM, first compound 0.0949 µM): 90.4% | viability, T/C (second compound 100 µM, first compound 0.3 µM): 51.7% | viability, T/C (second compound 100 µM, first compound 0.949 µM): 27.1% | viability, T/C (second compound 100 µM, first compound 3 µM): 25.7%

COc1cc2c(cc1O)CCNC21CSC2c3c(OC(C)=O)c(C)c4c(c3C(COC1=O)N1C(O)C3Cc5cc(C)c(OC)c(O)c5C(C21)N3C)OCO4 (stereo not given)
viability, T/C (compound 30 pM): 99.4% [middle of 10 runs] | viability, T/C (compound 0.0003 µM): 38.9% [middle of 10 runs] | viability, T/C (compound 0.000949 µM): 7.91% [middle of 10 runs] | viability, T/C (compound 0.003 µM): 0.12% [middle of 5 runs] | IC50 (compound alone, run of 12/12/2019): 0.233 nM [middle of 10 runs]

Cc1cc(C)c(CNC(=O)c2cc(-c3ccc(CN4CCOCC4)cc3)cc3c2cnn3C2CCCC2)c(=O)[nH]1 + COc1cc2c(cc1O)CCNC21CSC2c3c(OC(C)=O)c(C)c4c(c3C(COC1=O)N1C(O)C3Cc5cc(C)c(OC)c(O)c5C(C21)N3C)OCO4
IC50 [1]: > 10000 nM | IC50 [2]: 7070 nM | IC50 [3]: < 31.6 nM | IC50 [4]: < 31.6 nM | IC50 [5]: < 31.6 nM | viability, T/C [6]: 107% | viability, T/C [7]: 109% | viability, T/C [8]: 111% | viability, T/C [9]: 119% | viability, T/C [10]: 97.7% | viability, T/C [11]: 53.9% | viability, T/C [12]: 93.3% | viability, T/C [13]: 110% | viability, T/C [14]: 106% | viability, T/C [15]: 107% | viability, T/C [16]: 81% | viability, T/C [17]: 36.6% | viability, T/C [18]: 43.3% | viability, T/C [19]: 46.5% | viability, T/C [20]: 37.9% | viability, T/C [21]: 30% | viability, T/C [22]: 25.2% | viability, T/C [23]: 17.4% | viability, T/C [24]: 9.71% | viability, T/C [25]: 9.04% | viability, T/C [26]: 6.87% | viability, T/C [27]: 6.92% | viability, T/C [28]: 6.27% | viability, T/C [29]: 4.18% | viability, T/C [30]: 11.6% | viability, T/C [31]: 0.13% | viability, T/C [32]: 0.27% | viability, T/C [33]: 0.15% | viability, T/C [34]: 0.54% | viability, T/C [35]: 0.2%

[2H]c1nc(C)nc([2H])c1-c1cc(NC[C@@H](C)c2cccc3c(C(=O)NC)ccnc23)ncn1 + COc1cc2c(cc1O)CCNC21CSC2c3c(OC(C)=O)c(C)c4c(c3C(COC1=O)N1C(O)C3Cc5cc(C)c(OC)c(O)c5C(C21)N3C)OCO4
IC50 [1]: > 10000 nM | IC50 [2]: > 10000 nM | IC50 [3]: < 31.6 nM | IC50 [4]: < 31.6 nM | IC50 [5]: < 31.6 nM | viability, T/C [6]: 103% | viability, T/C [7]: 103% | viability, T/C [8]: 106% | viability, T/C [9]: 105% | viability, T/C [10]: 98.6% | viability, T/C [11]: 106% | viability, T/C [12]: 88.6% | viability, T/C [13]: 87.5% | viability, T/C [14]: 93% | viability, T/C [15]: 93.1% | viability, T/C [16]: 93.9% | viability, T/C [17]: 91.4% | viability, T/C [18]: 36.1% | viability, T/C [19]: 39.9% | viability, T/C [20]: 40% | viability, T/C [21]: 42.6% | viability, T/C [22]: 31.8% | viability, T/C [23]: 37.4% | viability, T/C [24]: 7.05% | viability, T/C [25]: 5.74% | viability, T/C [26]: 8.4% | viability, T/C [27]: 8.02% | viability, T/C [28]: 6.93% | viability, T/C [29]: 3.48% | viability, T/C [30]: 0.16% | viability, T/C [31]: 0.17% | viability, T/C [32]: 0.14% | viability, T/C [33]: 0.13% | viability, T/C [34]: 0.14% | viability, T/C [35]: 0.22%
